From patent US20090118332A1, “Therapeutic Agents - 551” (AstraZeneca AB, priority 2006, published 2009)

Target: T1, human Fatty Acid Synthase (Homo sapiens, UniProt P49327)
T1 construct: made in house
Experiment: Human FAS enzyme assay (decrease in NADPH fluorescence)
Type: biochemical
Conditions: % inhibition at a concentration of 100 μmolar
Method in brief: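 In-house human FAS was preincubated with compound and NADPH for 15 min at room temperature in 0.1 M Tris pH 7.5 with EDTA, glutathione and BSA. Malonyl CoA and acetyl CoA (500 μM and 150 μM in the added mix) were then added for 60 min. IC50 came from time-zero-subtracted NADPH fluorescence (340/460 nm).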

T1 sequence (P49327 whole entry): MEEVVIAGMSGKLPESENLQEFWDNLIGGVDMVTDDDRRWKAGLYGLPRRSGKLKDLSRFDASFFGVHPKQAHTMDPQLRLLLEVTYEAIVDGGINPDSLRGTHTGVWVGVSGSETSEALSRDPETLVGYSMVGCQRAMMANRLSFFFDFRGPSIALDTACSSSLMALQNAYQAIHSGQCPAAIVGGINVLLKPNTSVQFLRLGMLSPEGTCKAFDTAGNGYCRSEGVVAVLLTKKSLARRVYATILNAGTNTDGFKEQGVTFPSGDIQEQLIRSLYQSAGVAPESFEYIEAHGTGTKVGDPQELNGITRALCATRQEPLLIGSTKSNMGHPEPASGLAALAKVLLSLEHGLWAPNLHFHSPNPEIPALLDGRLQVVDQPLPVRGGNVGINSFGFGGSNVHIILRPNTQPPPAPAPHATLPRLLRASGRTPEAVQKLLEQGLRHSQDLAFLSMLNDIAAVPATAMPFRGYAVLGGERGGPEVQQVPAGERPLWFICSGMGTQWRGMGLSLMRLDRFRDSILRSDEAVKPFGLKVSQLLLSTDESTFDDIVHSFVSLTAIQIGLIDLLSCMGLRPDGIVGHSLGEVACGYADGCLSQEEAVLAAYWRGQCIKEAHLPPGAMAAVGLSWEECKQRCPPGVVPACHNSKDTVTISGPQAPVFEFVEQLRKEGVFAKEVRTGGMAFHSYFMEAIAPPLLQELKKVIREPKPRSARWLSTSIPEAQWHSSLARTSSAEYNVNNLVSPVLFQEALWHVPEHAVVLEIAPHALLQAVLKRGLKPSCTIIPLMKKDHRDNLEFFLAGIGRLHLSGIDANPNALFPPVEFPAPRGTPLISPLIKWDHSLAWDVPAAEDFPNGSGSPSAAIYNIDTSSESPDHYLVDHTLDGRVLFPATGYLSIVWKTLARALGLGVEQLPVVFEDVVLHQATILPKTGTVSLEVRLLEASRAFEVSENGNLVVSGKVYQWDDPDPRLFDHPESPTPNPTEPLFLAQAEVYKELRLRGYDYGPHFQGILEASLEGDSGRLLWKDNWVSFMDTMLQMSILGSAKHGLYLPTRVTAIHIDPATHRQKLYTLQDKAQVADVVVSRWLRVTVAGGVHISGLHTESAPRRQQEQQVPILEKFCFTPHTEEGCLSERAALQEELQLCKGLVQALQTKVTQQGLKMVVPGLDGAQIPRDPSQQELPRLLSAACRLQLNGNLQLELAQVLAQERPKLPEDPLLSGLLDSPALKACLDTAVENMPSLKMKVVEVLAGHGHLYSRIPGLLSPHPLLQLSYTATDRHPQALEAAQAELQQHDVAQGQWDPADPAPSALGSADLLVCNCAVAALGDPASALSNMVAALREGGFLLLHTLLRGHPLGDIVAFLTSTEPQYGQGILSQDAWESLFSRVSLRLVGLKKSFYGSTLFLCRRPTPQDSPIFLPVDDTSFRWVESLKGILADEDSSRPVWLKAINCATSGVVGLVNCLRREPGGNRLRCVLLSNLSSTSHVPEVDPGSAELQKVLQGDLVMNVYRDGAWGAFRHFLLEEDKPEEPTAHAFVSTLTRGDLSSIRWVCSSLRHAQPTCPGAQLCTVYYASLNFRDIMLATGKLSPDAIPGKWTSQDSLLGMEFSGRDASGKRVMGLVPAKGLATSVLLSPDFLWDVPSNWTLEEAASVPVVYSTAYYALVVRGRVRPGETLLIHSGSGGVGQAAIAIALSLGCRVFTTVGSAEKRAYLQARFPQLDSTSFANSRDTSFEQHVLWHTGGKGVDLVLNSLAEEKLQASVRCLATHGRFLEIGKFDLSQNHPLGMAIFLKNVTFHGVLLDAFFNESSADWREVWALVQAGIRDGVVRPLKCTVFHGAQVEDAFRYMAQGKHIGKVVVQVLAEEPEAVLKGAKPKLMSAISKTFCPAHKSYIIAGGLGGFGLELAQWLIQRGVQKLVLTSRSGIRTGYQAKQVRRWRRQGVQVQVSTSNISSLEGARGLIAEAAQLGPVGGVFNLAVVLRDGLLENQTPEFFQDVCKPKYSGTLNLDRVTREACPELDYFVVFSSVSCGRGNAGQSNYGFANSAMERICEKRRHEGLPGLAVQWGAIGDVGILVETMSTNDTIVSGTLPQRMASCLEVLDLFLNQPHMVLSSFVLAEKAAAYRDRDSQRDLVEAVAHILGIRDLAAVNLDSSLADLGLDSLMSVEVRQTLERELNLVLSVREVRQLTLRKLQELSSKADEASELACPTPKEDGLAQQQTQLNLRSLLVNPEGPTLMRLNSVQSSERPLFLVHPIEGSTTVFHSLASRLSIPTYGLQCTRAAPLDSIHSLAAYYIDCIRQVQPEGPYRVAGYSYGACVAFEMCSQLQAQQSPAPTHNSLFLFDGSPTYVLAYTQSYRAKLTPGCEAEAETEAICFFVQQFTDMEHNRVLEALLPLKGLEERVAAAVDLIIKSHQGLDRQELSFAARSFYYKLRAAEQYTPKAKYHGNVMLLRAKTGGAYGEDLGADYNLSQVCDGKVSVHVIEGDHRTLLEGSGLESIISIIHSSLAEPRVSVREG

| SMILES | inhibition at 100 µM |
| --- | --- |
| CC(=O)NCCCNC(=O)Nc1cc(C(=O)N2CCC(c3ccc(C#N)cc3)CC2)ccc1C [Example 273, N-[3-[[5-[4-(4-cyanophenyl)piperidine-1-carbonyl]-2-methyl-phenyl]carbamoylamino]propyl]acetamide] | 87% |
| Cc1ccc(C(=O)N2CCC(c3ccc(C#N)cc3)CC2)cc1NC(=O)NCCCNC(=O)C(C)C [Example 274, N-[3-[[5-[4-(4-cyanophenyl)piperidine-1-carbonyl]-2-methyl-phenyl]carbamoylamino]propyl]-2-methyl-propanamide] | 86% |
| CC(=O)N1CC[C@@H](NC(=O)Nc2cc(C(=O)N3CCC(c4ccc(C#N)cc4)CC3)ccc2C)C1 [Example 275, 3-[(3R)-1-acetylpyrrolidin-3-yl]-1-[5-[4-(4-cyanophenyl)piperidine-1-carbonyl]-2-methyl-phenyl]urea] | 106% |
| CCC(=O)N1CC[C@@H](NC(=O)Nc2cc(C(=O)N3CCC(c4ccc(C#N)cc4)CC3)ccc2C)C1 [Example 276, 3-[5-[4-(4-cyanophenyl)piperidine-1-carbonyl]-2-methyl-phenyl]-1-[(3R)-1-propanoylpyrrolidin-3-yl]urea] | 98.2% |
| CC(=O)N1CC[C@H](NC(=O)Nc2cc(C(=O)N3CCC(c4ccc(C#N)cc4)CC3)ccc2C)C1 [Example 277, 3-[(3S)-1-acetylpyrrolidin-3-yl]-1-[5-[4-(4-cyanophenyl)piperidine-1-carbonyl]-2-methyl-phenyl]urea] | 96.8% |
| Cc1ccc(NC(=O)NCCCS(C)(=O)=O)cc1C(=O)N1CCC(c2ccc(C#N)cc2)CC1 [Example 278, 1-[3-[4-(4-cyanophenyl)piperidine-1-carbonyl]-4-methyl-phenyl]-3-(3-methylsulfonylpropyl)urea] | 95.8% |
| Cc1ccc(C(=O)N2CCC(c3ccc(C#N)cc3)CC2)cc1NC(=O)NC1CCCN(C(=O)OC(C)(C)C)C1 (stereo not shown) [Example 279, tert-butyl 3-[[5-[4-(4-cyanophenyl)piperidine-1-carbonyl]-2-methyl-phenyl]carbamoylamino]piperidine-1-carboxylate] | 99.4% |
| N#Cc1ccc(C2CCN(C(=O)c3ccc(C(F)(F)F)c(NC(=O)NCc4ccccc4)c3)CC2)cc1 [Example 280, 1-benzyl-3-[5-[4-(4-cyanophenyl)piperidine-1-carbonyl]-2-(trifluoromethyl)phenyl]urea] | 90.6% |
| Cc1ccc(C(=O)N2CCC(c3ccc(C#N)cc3)CC2)cc1NC(=O)NC1CCN(S(C)(=O)=O)CC1 [Example 281, 1-[5-[4-(4-cyanophenyl)piperidine-1-carbonyl]-2-methyl-phenyl]-3-(1-methylsulfonyl-4-piperidyl)urea] | 99.7% |
| CC(=O)N1CCC(NC(=O)Nc2cc(C(=O)N3CCC(c4ccc(C#N)cc4)CC3)ccc2C)CC1 [Example 282, 3-(1-acetyl-4-piperidyl)-1-[5-[4-(4-cyanophenyl)piperidine-1-carbonyl]-2-methyl-phenyl]urea] | 95% |
| Cc1ccc(C(=O)N2CCC(c3ccc(C#N)cc3)CC2)cc1NC(=O)NC1CCN(C(=O)C(C)C)CC1 [Example 283, 1-[5-[4-(4-cyanophenyl)piperidine-1-carbonyl]-2-methyl-phenyl]-3-[1-(2-methylpropanoyl)-4-piperidyl]urea] | 101% |
| Cc1ccc(C(=O)N2CCC(c3ccc(C#N)cc3)CC2)cc1NC(=O)NC1CCN(C(=O)N(C)C)CC1 [Example 284, 4-[[5-[4-(4-cyanophenyl)piperidine-1-carbonyl]-2-methyl-phenyl]carbamoylamino]-N,N-dimethyl-piperidine-1-carboxamide] | 106% |
| Cc1ccc(C(=O)N2CCC(c3ccc(C#N)cc3)CC2)cc1NC(=O)NC1CCN(S(=O)(=O)N(C)C)CC1 [Example 285, 1-[5-[4-(4-cyanophenyl)piperidine-1-carbonyl]-2-methyl-phenyl]-3-[1-(dimethylsulfamoyl)-4-piperidyl]urea] | 98.7% |
